For assay [1], the system named is DA receptor. Description: DA metabolism (DOPAC, HVA levels) in habituated rats. In kind it is in vivo, rat (male Sprague-Dawley). The conditions noted are these: for response vs control in vivo at 100 µmol/kg: Rattus norvegicus, 1 h. As for the experimental part:
(§1) Footnotes Table 3. The rats were habituated to the motility meters 60 min
The rats were immediately killed after the activity session, striata
and limbic levels of DOPAC and 5HIAA were measured by means of HPLCEC. *p
In the experiments with habituated rats no NSD was administered and the animals were killed one hour after drug administration. […] The levels were expressed as % of controls (DOPAC and 5-HIAA see Table 3). The in vivo brain microdialysis experiments were performed in conscious rats as described by Waters et al., Eur. J. Pharm., 187, 425-34 (1990).
(§2) Injection volumes were 5 mL/kg.
After the activity session the rats were killed and the brain levels of HVA and DOPAC were measured (data are expressed as means ±SEM).

For the next assay, the target named is T1, 5-HT1A (Rattus norvegicus, UniProt P19327).
T1 construct: the whole brain with the exception of the brainstem and cerebellum was rapidly removed; from tissue
T1 sequence (P19327 1-422): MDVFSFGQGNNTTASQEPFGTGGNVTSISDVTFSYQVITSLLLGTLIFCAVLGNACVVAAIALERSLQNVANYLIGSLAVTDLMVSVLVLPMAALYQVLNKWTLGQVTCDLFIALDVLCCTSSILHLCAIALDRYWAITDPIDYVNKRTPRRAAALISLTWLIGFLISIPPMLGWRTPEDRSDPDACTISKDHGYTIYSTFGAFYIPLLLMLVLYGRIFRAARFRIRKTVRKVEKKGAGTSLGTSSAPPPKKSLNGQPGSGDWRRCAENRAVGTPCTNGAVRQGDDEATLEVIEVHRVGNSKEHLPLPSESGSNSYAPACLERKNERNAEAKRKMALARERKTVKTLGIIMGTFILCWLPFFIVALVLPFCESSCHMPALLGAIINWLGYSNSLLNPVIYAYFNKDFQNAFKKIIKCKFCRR
Description: 5-HT1A radioligand binding ([3H]-8-OH-DPAT). Further details: species or system rat (male Sprague-Dawley). As for the experimental part:
^b Serotonin 5HT1A ([^3 H]-8OH-DPAT, agonist) rat cortex.
5-HT1A radioligand binding. Male Sprague-Dawley rats (160-225 g) were killed by decapitation and the whole brain with the exception of the brainstem and cerebellum was rapidly removed, weighed and chilled in ice-cold 0.9% NaCl. Each brain was homogenized (Ultra-Turrax, 20 s) in 10 mL ice-cold 50 mM Tris buffer (pH 8.0 at 25° C.) containing 120 mM NaCl, 4 mM CaCl2 and 4 mM MgCl2 and centrifuged at 20,000 g's at 4° C. for 10 minutes. Pellets were resuspended in 10 mL fresh buffer and preincubated for 10 minutes in a 37° C. waterbath and then recentrifuged. Final pellets were homogenized in 100 volumes (w/v) of Tris buffer (as described above) containing 10 μM pargyline. The incubation tubes were kept on ice in triplicates and received 100 μL drug solution in water (or water for total binding) and 1000 μL membrane suspension (corresponds to 10 mg original tissue). The binding experiment was initiated by addition of 100 μL of (3H)-8-OH-DPAT (specific activity 143-158 Ci/mmol) in ascorbic acid (the final incubation concentration was 1 nM (3H)-8-OH-DPAT in 0.1% ascorbic acid). After incubation for 15 minutes at 37° C. the reaction was terminated by separation of the free radioligand from bound by rapid vacuum filtration using a cell harvester equipment (O. M. Teknik, Denmark). The tubes were rinsed with 4 mL and the filters (Whatman GF/F 25 mm) were washed twice with 4 mL ice-cold 0.9% NaCl.
The radioactivity of the filters was measured in a liquid scintillation counter (efficiency 41%) in 5 mL Picofluor®. Specific binding (70-75% of total binding) was defined as the radioactivity displaced by 10 μM 5-HT. IC50 values were calculated by semi-log plot and linear regression analysis.

Another assay has as its system habituated rats. The experiment in a line: Locomotor activity and behavior in habituated rats. It is filed as in vivo, rat (male Sprague-Dawley). The conditions noted are these: 100 μmol/kg sc, habituated rats; for response vs control in vivo at 100 µmol/kg: Rattus norvegicus, 1 h, read-out: Motor Activity. As for the experimental part:
as §1
prior to the activity session.
as §2
Locomotor activity was measured in rats which were habituated 60 minutes to the activity meters before drug injection. The activity was measured for the subsequent 60 minutes and expressed as % of controls (means ±SEM, n=4).

A further assay has as its target T2, D2 receptors (Rattus norvegicus, UniProt P61169).
T2 construct: Preparation of rat striatal membranes for (3H)-spiperone; from tissue; host or cells: rat striatum (striatal membranes)
Description: D2 antagonist binding ([3H]-spiperone), rat striatum. The protocol:
D2 antagonist binding. Preparation of rat striatal membranes for (3H)-spiperone (specific activity 21-24 Ci/mmol) binding was carried out in a similar manner as described for D1-binding, Hyttel et al., J. Neural. Transm., 68, 171 (1987).
IC50 values were calculated by semi-log plot and linear regression analysis.

For a further assay, the system named is 5-HT receptor. Description: 5-HTP accumulation (5-HT synthesis rate) in non-pretreated rats after NSD 1015. It is filed as in vivo, rat (male Sprague-Dawley). The protocol: observations are commented to the right. After the session the rats were
accumulation in the NErich cortical regions and 5HTP in the limbic
as §2

For assay [2], the system named is DA receptor. The experiment in a line: DOPA accumulation (DA synthesis rate) in non-pretreated rats after NSD 1015.
A further assay has as its system non-pretreated rats. Description: Locomotor activity and gross behavior in non-habituated (non-pretreated) rats. The conditions noted are these: non-pretreated rats; for Motor Act.: 30 min.
[3] abbreviates: [3H]-8-OH-DPAT, rat cortex, read-out: in vitro binding IC50, 5HT1A.
[4] abbreviates: [3H]-spiperone, rat striatum, read-out: in vitro binding IC50, D2 -spip.
Setting [5] is: 100 μmol/kg sc, habituated rats.
[6] abbreviates: read-out: in vitro binding IC50, D2 -spip, [3H]-spiperone, rat striatum.
The mark [7] stands for this setting: 100 μmol/kg sc, habituated rats, read-out: DOPAC limbic.
[8] abbreviates: 100 μmol/kg sc, habituated rats, read-out: DOPAC striatum.

Read-outs that look alike come from different tables or passages of the source.

T2 sequence (P61169 whole entry): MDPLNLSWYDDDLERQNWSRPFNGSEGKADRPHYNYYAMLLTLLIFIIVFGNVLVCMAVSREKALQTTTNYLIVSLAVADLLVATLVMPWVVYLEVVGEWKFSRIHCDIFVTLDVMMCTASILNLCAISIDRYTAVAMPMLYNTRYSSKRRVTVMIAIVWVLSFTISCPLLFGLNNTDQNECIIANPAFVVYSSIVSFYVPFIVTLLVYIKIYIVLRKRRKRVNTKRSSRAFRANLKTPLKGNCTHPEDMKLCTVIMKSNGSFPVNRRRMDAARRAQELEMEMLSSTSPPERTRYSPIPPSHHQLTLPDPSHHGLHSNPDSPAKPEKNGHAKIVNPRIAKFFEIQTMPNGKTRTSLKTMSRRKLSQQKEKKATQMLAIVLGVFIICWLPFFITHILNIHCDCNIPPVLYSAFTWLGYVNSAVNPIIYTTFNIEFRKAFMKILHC

On to `CCCN1CCCC(c2cccc(C#N)c2)C1` (racemic) [(+)-S-34], for which the response vs control in vivo at 100 µmol/kg with DA receptor [1] (sc, read-out: DOPAC limbic) stood at 207 ± 6%; in the assay with DA receptor [1] (sc, read-out: DOPAC striatum), 291 ± 16%.

For `CCCN1CCCC(c2ccccc2OS(=O)(=O)C(F)(F)F)C1` (racemic) [Racemic-19, 3-((2-(Trifluoromethyl)sulfonyl)oxyphenyl-N-n-propyl)piperidine], at 5-HT1A (setting [3]), the IC50 was determined as 1.4 µM. Also, in the assay with habituated rats, the Behavioral observations result is “No activation”. Moreover, the response vs control in vivo at 100 µmol/kg in the assay with habituated rats (60 min) turned out to be 101 ± 14%.

Turning to `CCCN1CCCC(c2ccc(OS(=O)(=O)C(F)(F)F)cc2)C1` (racemic) [Racemic-20, 3-((4-(Trifluoromethyl)sulfonyl)oxyphenyl-N-n-propyl)piperidine], the IC50 stood at 71 µM at D2 receptors (setting [4]) and 14 µM at 5-HT1A (setting [3]).

Consider `CCCN1CCC(c2cccc(OS(=O)(=O)C(F)(F)F)c2)C1` (racemic) [Racemic-21, 3-((3-(Trifluoromethyl)sulfonyl)oxyphenyl-N-n-propyl)pyrrolidine], for which the figures for the concentration for half-maximal inhibition (IC50) at D2 receptors (setting [4]) and on 5-HT1A (setting [3]) were 4 µM and 3.2 µM, respectively. In the assay on habituated rats, the Behavioral observations entry is listed as “No activation”. The response vs control in vivo at 100 µmol/kg in the assay on habituated rats (60 min) was determined as 93 ± 18%.

As for `C=Cc1cccc([C@@H]2CCCN(CCC)C2)c1` [(-)-R-41], in the assay on 5-HT receptor (100 sc), the “5-HTP acc Limbic Region” value was 65 ± 2 % of saline controls. Further, in the assay with DA receptor [2] (100 sc), the “DOPA acc Cortex” value is 121 ± 29 % of saline controls and the “DOPA acc Stratium” value was 171 ± 15 % of saline controls. In addition, in the assay with non-pretreated rats (100 sc), the “Gross Behavioral Observations” value was “No change” and the “Motor Act.” value is on record as 125 ± 13 % of saline controls.

Regarding `O=S(=O)(Oc1cccc([C@@H]2CCCN(CCc3ccccc3)C2)c1)C(F)(F)F` [Compound S-18], the IC50 at D2 receptors came to 0.24 µM; on 5-HT1A (setting [3]), 0.23 µM.

In the case of `CCCN1CCC[C@@H](c2cccc(C(=O)OC)c2)C1` [Compound S-25, S-3-(3-(Methoxycarbonyl)phenyl-N-n-propyl)piperidine], the 50% inhibitory concentration (IC50) on D2 receptors (setting [4]) was 16 µM; at 5-HT1A (setting [3]), 2 µM.

For the compound `N#Cc1cccc([C@@H]2CCCNC2)c1` [Compound S-31, S-3-(3-Cyanophenyl)piperidine], at D2 receptors (setting [4]), the IC50 came out at 16 µM. On 5-HT1A, the IC50 amounted to 10 µM. In addition, in the assay with DA receptor [1] (setting [5]), the DOPAC limbic is reported as 153 ± 1% and the DOPAC striatum is listed as 167 ± 8 % of saline treated controls. For the same compound, in the assay with habituated rats, the Behavioral observations entry was “Activation”. Also, the “Motor Activity” value with habituated rats (60 min) is given as 431 ± 80 % of saline treated controls.

On to `CC(C)N1CCC[C@@H](c2cccc(C#N)c2)C1` [Compound S-35, S-3-(3-Cyanophenyl-N-iso-propyl)piperidine], for which the half-maximal inhibitory concentration (IC50) at D2 receptors (setting [6]) came out at 4.3 µM; on 5-HT1A (setting [3]), 16 µM. Moreover, in the assay with DA receptor [1] (sc, read-out: DOPAC striatum), the response vs control in vivo at 100 µmol/kg came out at 251 ± 18%. In addition, the Behavioral observations result with habituated rats was “Activation”.

For the compound `CCCCN1CCC[C@@H](c2cccc(C#N)c2)C1` [Compound S-36, S-3-(3-Cyanophenyl-N-n-butyl)piperidine], the 50% inhibitory concentration (IC50) amounted to 3.7 µM at D2 receptors (setting [6]) and 5.6 µM at 5-HT1A (setting [3]).

Regarding `C=CCN1CCC[C@@H](c2cccc(C#N)c2)C1` [Compound S-37, S-3-(3-Cyanophenyl-N-allyl)piperidine], the IC50 stood at 8.2 µM on D2 receptors (setting [6]) and 12 µM on 5-HT1A (setting [3]). Also, the response vs control in vivo at 100 µmol/kg in the assay on DA receptor [1] (sc, read-out: DOPAC limbic) was 205 ± 17%.

Regarding `N#Cc1cccc([C@@H]2CCCN(CC3CC3)C2)c1` [Compound S-38, S-3-(3-Cyanophenyl-N-cyclopropylmethyl)piperidine], the IC50 at 5-HT1A (setting [3]) worked out at 7.9 µM. Besides, in the assay with DA receptor [1] (sc, read-out: DOPAC limbic), the response vs control in vivo at 100 µmol/kg was 221 ± 8%.

Consider `N#Cc1cccc([C@@H]2CCCN(CCc3ccccc3)C2)c1` [Compound S-39, S-3-((3-Cyanophenyl)-N-(2-phenylethyl))piperidine], for which the figures for the IC50 at D2 receptors (setting [4]) and at 5-HT1A (setting [3]) were 0.63 µM and 0.15 µM, respectively. Further, the results for the response vs control in vivo at 100 µmol/kg in the assay on DA receptor [1] (setting [7]), in the assay with DA receptor [1] (setting [8]) and with habituated rats (60 min) were 169 ± 16%, 231 ± 14% and 511 ± 69%, respectively. Besides, the Behavioral observations entry in the assay with habituated rats is “Activation”.

In the case of `N#Cc1cccc([C@@H]2CCCN(CCc3cccs3)C2)c1` [Compound S-40, S-3-((3-Cyanophenyl)-N-(2-thiopheneethyl))piperidine], the values for the IC50 on D2 receptors (setting [4]) and at 5-HT1A (setting [3]) were 0.89 µM and 0.4 µM, respectively. The response vs control in vivo at 100 µmol/kg in the assay on DA receptor [1] (setting [7]) is 149 ± 17%; in the assay on DA receptor [1] (setting [8]), 201 ± 4%; in the assay with habituated rats (60 min), 500 ± 92%. The Behavioral observations result in the assay with habituated rats is on record as “Activation”.

Regarding `CN1CCC[C@@H](c2cccc(C#N)c2)C1` [S-(+)-32, S-(+)-3-(3-Cyanophenyl-N-methyl)piperidine], the IC50 on D2 receptors (setting [4]) came out at 50 µM; at 5-HT1A (setting [3]) it was 14 µM. Moreover, the entries for the “5-HTP acc Limbic Region” value in the assay on 5-HT receptor (25 sc) and in the assay on 5-HT receptor (100 sc) were 98 ± 7 % of saline controls and 78 ± 2 % of saline controls, respectively. The response vs control in vivo at 100 µmol/kg was found to be 110 ± 6% in the assay on DA receptor [1] (sc, read-out: DOPAC limbic) and 120 ± 5% with DA receptor [1] (sc, read-out: DOPAC striatum). For the same compound, the “DOPA acc Cortex” value with DA receptor [2] (25 sc) is recorded as 91 ± 5 % of saline controls; in the assay with DA receptor [2] (100 sc) it was 109 ± 12 % of saline controls. The “DOPA acc Stratium” value with DA receptor [2] (25 sc) is recorded as 132 ± 9 % of saline controls; with DA receptor [2] (100 sc), 215 ± 6 % of saline controls. In the assay on non-pretreated rats (25 sc), the “Gross Behavioral Observations” value is reported as “No change”. Also, the “Motor Act.” value with non-pretreated rats (25 sc) is recorded as 128 ± 27 % of saline controls; in the assay with non-pretreated rats (100 sc) it was 79 ± 2 % of saline controls.

`CCCN1CCC[C@@H](c2cccc(C(N)=O)c2)C1` [S-(-)-29, S-(-)-3-(3-Carbamoylphenyl-N-n-propyl)piperidine]: the IC50 at D2 receptors (setting [4]) turned out to be 75 µM; at 5-HT1A (setting [3]) it was 6.3 µM.

Turning to `CCCN1CCC[C@@H](c2cccc(OC)c2)C1` [S-i, S-3-(3-Methoxyphenyl-N-n-propyl)piperidine], the IC50 was found to be 21 µM at D2 receptors (setting [4]) and 4.5 µM at 5-HT1A (setting [3]).

Usually IC50 stands for the point on the concentration scale where inhibition reaches its midpoint.

These data come from patent publication US5594024A, “Centrally actig substituted phenylazacycloalkanes” (priority 1995, dated 1997).
